From US20240316012A1, “METHODS FOR TREATING LYMPHOMA” (Northwestern University, priority 2023, published 2024)

Legend:
[1] = system: PDCD1-mutant lymphoma cells (primary CTCL); assay: Inhibitor treatment of human cells in vitro, division index, PDCD1-mutant CTCL cells; format: cell-based; settings: 2-DG 1 mM, everolimus 0.1 μM, BMS-303141 10 μM; anti-CD3/anti-CD28 beads, 6 days; FIG. 7E
Method: (§1) FIGS. 7A-7H show ACLY dependency and AP-1 activation in human PDCD1 defective T-NHL. […] CNA, copy number aberrations. FIG. 7B GSEA for the indicated gene sets based on RNA-seq data from the 21 CTCL patients shown in (a). NES, normalized enrichment score; FDR, false discovery rate. […] P=one-way ANOVA and two-sided Student's t-test. Shown are the mean±SD and individual data points. […] FACS-sorted malignant cells were stimulated with anti-CD3/anti-CD28 beads, and 2-NBDG uptake was determined at the indicated time points. P=two-sided Student's t-test. Shown are the mean±SEM and individual data points. […] CFSE, carboxyfluorescein succinimidyl ester. P=two-sided Student's t-test. The data are presented as the mean±SEM and individual data points. […] Legend as in (5a). […] FIG. 7H GSEA for the indicated gene sets with RNA-seq data from 21 CTCL PDCD1mut” or “PDCD1 wt, and three patients with hyperprogression. NES, normalized enrichment score; FDR, false discovery rate. FIGS. 7A and 7B, Data from a single experiment with 21 patients. FIGS. 7C and 7D, Data from one experiment with three patients per group and three healthy donors. FIG. 7E, Data from one experiment with three patients and three healthy donors. FIGS. 7F and 7G, Data from one experiment with three patients per group. FIG. 7H, Data from a single experiment.
(§2) Isolation of primary human CTCL cells. This study was approved by the Northwestern University Institutional Review Board. Patients provided informed consent for inclusion in the study. […] The tumor burden for each patient was determined using well-validated clinical markers, taking whichever value was higher between Sezary cell counts or the CD26 negative cell number by clinical flow cytometry. These were analyzed in conjunction with white blood cell and absolute lymphocyte counts.
(§3) Inhibitor treatment of human cells in vitro Malignant CTCL cells and CD4^+ T cells from healthy donors were isolated as previously described. […] After 6 days, the cells were analyzed by flow cytometry, and the division index was determined using the FlowJo proliferation tool (v10.6, FlowJo LLC).

[2] = system: PD-1 wild-type tumors (primary CTCL); assay: Inhibitor treatment of human cells in vitro, division index, PD-1 wild-type CTCL cells; format: cell-based; settings: 2-DG 1 mM, everolimus 0.1 μM, BMS-303141 10 μM; 6 days; FIG. 7E
Method: as §1, §2, §3

[3] = system: H3K27 acetylation; assay: Flow cytometry for H3K27ac after in vitro culture with inhibitors; format: cell-based, mouse; settings: exogenous acetate 100 μM; FIG. 11E
Text: Data are normalized to viable cell number and z-scores per metabolite. […] P=two-sided Student's t-test. The data are presented as the mean±SEM and individual data points for each animal. Cross indicates death of the animal. […] P=two-sided Student's t-test. Shown are the mean±SD and individual data points. […] Data are presented as mean±SD and individual data points. […] P=paired two-sided Student's t-test. Data are presented as the mean±SD. […] Data was normalized as in (a). P=two-sided Student's t-test. The data are presented as the mean±SEM. […] Experiment as in (h) (n=3 mice genotype). Data was normalized as in (a). P=two-sided Student's t-test. Data are presented as the mean±SD. FIGS. 3-D, Representative data from two independent experiments with n=3 biological replicates per group. FIG. 3E, Representative data from two independent experiments with two biological replicates per group. FIG. 3F, Representative data from two independent experiments. FIG. 3G, Representative data from two independent experiments with three biological replicates per group. FIG. 3H, Representative data from one experiment with four biological replicates per group. FIG. 3I, Representative data from one experiment with three biological replicates per group FIGS. 4A-4H show ACLY is a critical effector molecule downstream of PD-1. […] ITK-SYK^+ cells were FACS-sorted from ITK-[…]2 mice on d5 after TAM and 12 h anti-PD-L1 or isotype control antibody treatment (i.p., 200 μg). P=paired two-sided Student's t-test. Data are presented as the mean±SD. […] Spleen-derived single-cell suspensions were FACS-sorted from ITK-[…]2 mice on d5 after TAM and cultured in vitro overnight with anti-PD-L1 or isotype control antibodies and the PI3K inhibitors (“iPI3K”) Wortmannin (20 nM), LY294002 (20 μM), or DMSO. […] Spleen-derived lymphocytes, FACS-sorted from ITK-[…]2 and ITK-[…]2; Pdcd1^-/- mice on d5 after TAM were incubated for three days in vitro. P=two-sided Student's t-test. Data are presented as the mean±SD. […] Protein lysates were generated after 48 h in vitro culture. RNP, ribonucleoprotein. […] P=two-sided Logrank-test. […] ITK-SYK^+ cells were FACS-sorted from ITK-[…]2 (“Pdcd1^+/+”) and ITK-[…]2; Pdcd1^-/- (“Pdcd1^-/-”) mice on d5 after TAM, fixed, and processed for anti-H3K27ac ChIP-seq analysis. ChIP-seq, chromatin immunoprecipitation sequencing; TSS, transcription start site. FIG. 4B, Representative data from three independent experiments with three biological replicates per group. FIG. 4C, Representative data from two independent experiments with two biological replicates. FIGS. 4D and 4E, Representative data from 3 independent experiments. FIGS. 4F and 4G, Data from one experiment with n=5 mice per group. […] (8752, CST), and assessed by flow cytometry. […]

[4] = system: ITK-SYK^+PD-1− lymphoma; assay: Torin-1 inhibitor treatment in vivo of lymphoma-bearing NSG mice; set-up: species or system mouse
Text: FIGS. 2A-2F PD-1 represses mTOR and HIF1α in pre-malignant cells. […] White arrows indicate spleens. Color intensity represents the calculated MBq/ml uptake of ^18F-FDG. SUV, standardized uptake value ^18F-FDG, ^18F-fluordesoxyglucose. […] SUVmax denotes the maximum signal found in a single voxel across the entire tumor lesion. P=one-way ANOVA and two-sided Student's t-test. Shown are the mean±SEM and individual data points. […] CSI, chemical shift imaging. ROI, region of interest. […] P=two-sided Student's t-test. Shown are the mean±SD and individual data points. […] Spleen-derived single-cell suspensions were generated from ITK-SYK^CD4-creERT2 mice on d5 after TAM. Before fixation, anti-PD-L1 or control antibodies were added for four hours in vitro. […] On day 0, NSG mice received 1,000 ITK-SYK-expressing eGFP+ cells from an ITK-SYK^CD4-creERT2; Pdcd1^−/− mouse, FACS-sorted on d5 after TAM. Mice received 6 mg/kg Torin-1 or vehicle daily via intraperitoneal injection (n=6 mice per group) from day 3 p.i. on. P=two-sided log-rank test. FIG. 2A, Representative mice from two independent experiments. FIG. 2B, Pooled data from two independent experiments. FIG. 2C, Representative amplitudes from one experiment. FIG. 2D, Pooled data from two independent experiments. FIG. 2E, Representative data from two independent experiments with two biological replicates per group. […]

For CO[C@H]1C[C@@H]2CC[C@@H](C)[C@@](O)(O2)C(=O)C(=O)N2CCCC[C@H]2C(=O)O[C@H]([C@H](C)C[C@@H]2CC[C@@H](OCCO)[C@H](OC)C2)CC(=O)[C@H](C)/C=C(\C)[C@@H](O)[C@@H](OC)C(=O)[C@H](C)C[C@H](C)/C=C/C=C/C=C/1C [everolimus], the “viability, division and proliferation of PDCD1-mutant cancer cells (relative division index)” value [1] was “reduced the viability and division” and the “response of stage-matched PD-1 wild-type tumors (relative division index)” value [2] was “resistant”.

CC(=O)O [acetate] was tested, and the “restoration of decreased H3K27ac signals in ACLY inhibitor-treated lymphoma cells” value [3] was “not able to restore”.

In the case of CCC(=O)N1CCN(c2ccc(-n3c(=O)ccc4cnc5ccc(-c6cnc7ccccc7c6)cc5c43)cc2C(F)(F)F)CC1 [Torin-1], the “survival of ITK-SYK+PD-1− lymphoma-bearing mice” value ([4]; NSG mice, Torin-1 intraperitoneal from day 3, 6 mg/kg daily or 10 mg per kg per day 5 days a week, vs vehicle, p=0.0057) is reported as “significantly prolonged survival” and the “mTOR activity within the tumor cells in vivo” value ([4]; lymphoma-bearing mice, FIG. 10G) is reported as “blocks mTOR activity”.
